From patent US9682926B2, “Cancer chemotherapeutic agent/formulation, manufacture and use thereof” (Bose Institute, priority 2012, dated 2017)
Where “and” joins values, the source holds several entries; their conditions need not be identical. Equal entries are not always repeated. Where two headings read alike, the source gives them in different places.

Assays:
[1] = test system: SOD, CAT and GST
Method: (§1) The homogenate was then centrifuged at 10,000 g at 4° C. for 20 mins.
Briefly, assay mixture consists of 3 mL of H2O2 phosphate buffer and 0.05 mL of the supernatant of the tissue homogenate. The change in absorbance was recorded for 2 min at 30 s interval at 240 nm using spectrophotometer.
One unit of enzyme activity is defined as the amount of enzyme necessary for inhibiting the reaction by 50%. Auto oxidation of Pyrogallol in Tris-HCL buffer (50 mM, pH 7.5) is measured by increase in absorbance at 420 nm.

[2] = Method: as §1
The amount of malondialdehyde was measured by reaction with thiobarbituric acid at 532 nm using spectrophotometer. MDA levels were calculated using the standard curve of malondialdehyde and its level expressed in nM/mg of protein.

[3] = test system: bone marrow cells; type: in vivo; conditions: EAC tumor bearing mice
Description: (§2) The cells were resuspended in RPMI-1640.

[4] = test system: S-180 tumor cells
Description: (§3) For the determination of cell cycle phase distribution of nuclear DNA, cells from bone marrow and tumor tissue (1×10^6 cells) were harvested from tumor bearing untreated and treated mice.

[5] = test system: bone marrow cells
Description: as §3

[6] = test system: bone marrow cells; type: in vivo, Swiss albino mice; conditions: S-180 tumor bearers
Description: as §2

[7] = test system: PCNA; experiment: Western blot of PCNA in bone marrow; type: in vivo, Swiss albino mice; conditions: all M2 treated groups, compared to sarcoma control
Method: (§4) Cell lysates were obtained and equal amounts of protein from each sample were diluted with loading buffer, denatured, and separated by 10% sodium dodecyl sulfate-polyacrylamide gel electrophoresis (SDS-PAGE) followed by protein transfer to polyvinylidene fluoride membranes (PVDF). […] Proteins were detected by incubation with corresponding primary antibodies (anti p53, anti-p21, anti-Nrf-2, anti-ERK3 and anti-PCNA) antibodies followed by blotting with AP-conjugated secondary antibody. The blots were then exposed to NBT/BCIP substrate for detection. This analysis was performed three times.

[8] = test system: ERK; experiment: Western blot of ERK in tumor tissue; type: in vivo, Swiss albino mice; conditions: S-180 tumor tissue, compared to sarcoma control and cyclophosphamide treated groups
Method: as §4

[9] = test system: A 549: Lung Cancer cell with wild type p53; experiment: Cytotoxicity against cancer cell lines: A 549; type: cell-based
Method: (§5) Cancer cell lines with functional or disrupted p53 expression were maintained in ATCC recommended culture media supplemented with 10% FBS, 100 μg/ml streptomycin and 50 units/ml penicillin, at 37° C. in a humidified incubator containing 5% CO2. For experiments, cells (10^6) were plated with 2% serum and then the required experiments were performed. […] Simultaneously, the effect of the compound was also investigated in one p53 mutated breast cancer cell line and in one cervical cancer cell line with disrupted p53 pathway.

[10] = test system: Nrf-2; experiment: Western blot of Nrf-2 in liver; type: in vivo, Swiss albino mice; conditions: S-180 tumor bearers, compared to sarcoma control
Method: as §4

[11] = target: G-Quadruplex 5′-TAGGG(TTAGGG)3-3′; experiment: Fluorescence emission titration with G-Quadruplex; conditions: read-out: equilibrium dissociation constant (KD); from change in fluorescence emission maxima of G-Quadruplex
Method: The emission spectra of a DNA duplex and G-Quadruplex sequence were recorded at room temperature using Hitachi spectrometer (F-700 FL spectrophotometer) with one cm path-length quartz cuvette. The emission spectrum was recorded from 300-500 nm with an excitation wavelength of 260 nm. Excitation and emission slits were set to 5 nm each. Emission spectra were recorded by titrating small molecules up to 50 μM concentration against 10 μM G-Quadruplex and duplex DNA.

[12] = test system: PCNA; experiment: Western blot of PCNA in tumor tissue; type: in vivo, Swiss albino mice; conditions: S-180 tumor tissue
Method: as §4

[13] = test system: Ehrlich's ascites carcinoma (EAC); experiment: Ehrlich's ascites carcinoma (EAC) tumor model: tumor volume and cell count; type: in vivo; conditions: EAC bearing mice, 35 μM, vs EAC control and cyclophosphamide treated
Description: Ehrlich's ascites carcinoma (EAC) cells were maintained by serial intra-peritoneal passage of 10^5 cells per mice. EAC cells were collected from tumor-bearing mice at the exponential phase of growth, roughly 7 days after tumor transplant. The cells were drawn out aseptically with the help of a fine needle. The cells were washed in PBS and counted with the help of a Hemocytometer by the Trypan Blue dye exclusion test. The cells were suspended in PBS and inoculated into the next batch of mice.

[14] = test system: Sarcoma 180 cells; experiment: Cytotoxicity study against Sarcoma 180 cells in vitro; type: cell-based, murine; conditions: Sarcoma 180 (in vitro)
Method: Before entering into the in vivo experiments with solid transplantable tumour model of sarcoma 180, the drug's efficacy was tested against the same tumor cell in vitro.

[15] = test system: HeLA: Cervical Cancer Cell with unstable P53; experiment: Cytotoxicity against cancer cell lines: HeLA; type: cell-based
Method: as §5

[16] = test system: S-180 tumor cells; experiment: Comet assay in sarcoma tumor cells from treated mice (apoptosis); type: in vivo, Swiss albino mice; conditions: S-180 bearing mice, vs untreated sarcoma control
Method: Comet assay is a sensitive, reliable, and rapid method for DNA damage evaluation. The segmented DNA emigrates from the nucleus towards the anode under an electrical current to produce comets. About 400 μl of the cell suspension was mixed with 800 μl 1% low melting point agarose. Then 100 μl of the mixture was layered on slides precoated with a 1% normal melting point agarose and then covered with a cover slip. The slides were then placed in a refrigerator for 5 min. Then cover slips were carefully removed and the slides were left in a dark place except for the positive control slides. The positive control slides were treated with 200 μM H2O2 solution for 17 min at 4° C., while the negative control slides remained untreated. Then all the slides were immersed in cold lysis solution (2.5 M NaCl, 100 mM EDTA, 0.2 M NaOH, 10 mM Tris, 1% Triton X-100, pH=10), protected from light and refrigerated at 4° C. for 45 min. Slides were then left in freshly prepared electrophoresis solution (0.3 M NaOH, 1 mM EDTA, pH>13,) for 40 min. Electrophoresis was performed using the same solution at 300 mA, 25 V for 45 min. After electrophoresis the slides were neutralized gently with 0.4 M Tris buffer at pH 7.5 for 10 min and stained with 20 μg/ml ethidium bromide for 7 min. […] Comets were counted in four to five different fields of a section, and data are summarized in terms of percent comet. […]

[17] = test system: MCF-7: Breast Cancer cell with p53 wild type; experiment: Cytotoxicity against cancer cell lines: MCF-7; type: cell-based
Method: as §5

[18] = test system: MDA MB 231 (p53 mutated); experiment: Cell cycle analysis of M2 treated p53 mutated breast cancer cell line (PI flowcytometry); type: cell-based; conditions: 12 hour exposure
Method: Cell cycle analyses were performed with the p53 mutated breast cancer cell line to explore deeper into the probable mechanism. […] For experiments, cells (10^6) were plated with 2% serum and then the required experiments were performed. Cells were harvested after 12 hour exposure with the compound at varying concentrations and cell cycle phase distribution of nuclear DNA was determined by flowcytometry using propidium iodide (PI) as DNA-binding fluorochrome.
Analyses of the cells in sub GO phase and S/G2/M are given as mean±Standard Deviation of five independent experiments.

[19] = test system: MDA MB 231: Breast Cancer cell with p53 mutation; experiment: Cytotoxicity against cancer cell lines: MDA MB 231; type: cell-based
Method: as §5

[20] = Serum biochemical markers of toxicity (ALT, AST, ALP, creatinine); type: in vivo, Swiss albino mice; conditions: all M2 treated groups except the highest dose (40 μM)
Method: Alanine aminotransferase (ALT), aspartate aminotransferase (AST), alkaline phosphatase (ALP) and creatinine levels were measured from collected sera using kits (Sigma).

[21] = test system: human PBMC; experiment: Cytotoxicity (cell viability) of M2 against human PBMC; type: cell-based; conditions: for Total Cell Count (% survival): mean ± SD of five experiments
Method: Peripheral blood mononuclear cells (PBMC) were isolated from normal human blood and were maintained in RPMI supplemented with 10% FBS, 100 μg/ml streptomycin and 50 units/ml penicillin, at 37° C. in a humidified incubator containing 5% CO2. […] The doses that were tested ranged between 0.5433×10^−7 μM to 35 μM.

[22] = test system: human PBMC; experiment: as above; type: cell-based; conditions: highest dose 30 μM
[23] = test system: HepG2: Liver Cancer cell with wild type p53; experiment: Cytotoxicity against cancer cell lines: HepG2; type: cell-based
Method: as §5

[24] = S-180 tumor bearers, cyclophosphamide treatment

SMILES: O=P1(N(CCCl)CCCl)NCCCO1 (stereo not shown) [cyclophosphamide, reference compound]
- activity of hepatic anti-oxidant enzymes SOD, CAT and GST ([1]; liver of S-180 tumor bearers, vs normal and sarcoma control): depression
- hepatic LPO levels (oxidative stress) ([2]; liver of S-180 tumor bearers, vs sarcoma control): further enhanced
- effect on bone marrow (cell count) [3]: induces myelosuppression
- hypoploid cells (sub-G0 region) of tumor cells ([4]; S-180 bearing mice, cyclophosphamide treated group): 42.1%
- bone marrow hypoploidy peak [5, 24]: 48.5%
- bone marrow proliferative phases (S and G2/M combined) [5, 24]: 3%
- bone marrow cell count / bone marrow suppression [6]: significant depression

SMILES: CN(CCC#N)c1ccc(C=NCCCN=Cc2ccc(N(C)CCC#N)cc2)cc1 [M2, Bis(3-[4-({[3-({4-[(2 cyanoethyl)(methyl)amino]benzylidene}amino)propyl]imino}methyl)(methyl)anilino]propanenitrile)]
- PCNA expression in bone marrow [7]: significant increase
- expression of ERK in tumor tissues [8]: significantly reduce
- Death Percentages ([9]; A 549, dose 15 μM): 26 ± 4.32%
- Death Percentages ([9]; A 549, dose 20 μM): 34.25 ± 4.35%
- Death Percentages ([9]; A 549, dose 25 μM): 47.75 ± 6.34%
- Nrf-2 expression in the liver [10]: increased
- Kd [11]: 31 ± 1.2 µM
- PCNA expression in tumor tissues [12]: decrease
- tumor cell count [13]: significant reduction
- tumor volume [13]: significant reduction
- activity of hepatic anti-oxidant enzymes SOD, CAT and GST ([1]; mouse, in vivo): increase
- Death Percentages ([14]; dose 15 μM): 36.67 ± 6.12%
- Death Percentages ([14]; dose 20 μM): 50.33 ± 5.03%
- Death Percentages ([14]; dose 25 μM): 57.33 ± 4.16%
- hepatic LPO levels (oxidative stress) ([2]; mouse, in vivo): significant decrease
- Death Percentages ([15]; dose 15 μM): 20.5 ± 4.20%
- Death Percentages ([15]; dose 20 μM): 37.75 ± 5.44%
- Death Percentages ([15]; dose 25 μM): 46.75 ± 5.38%
- effect on bone marrow (cell count) [3]: protective effect
- DNA damage in tumor cells (percentage of comet cells per field) [16]: significant DNA damage
- hypoploid cells (sub-G0 region) of tumor cells ([4]; mouse, in vivo): 39.94% and 69.2% and 41.5%
- proliferative stage (sum of S and G2/M) of tumor cells ([4]; mouse, in vivo): distinctive depression
- bone marrow hypoploidy peak ([5]; mouse, in vivo): 5.4%
- bone marrow proliferative phase ([5]; mouse, in vivo): did not decrease
- Death Percentages ([17]; MCF-7, dose 15 μM): 23.00 ± 7.26%
- Death Percentages ([17]; MCF-7, dose 20 μM): 32.5 ± 2.89%
- Death Percentages ([17]; MCF-7, dose 25 μM): 41.5 ± 2.65%
- % S/G2/M as from cell cycle analysis ([18]; MDA MB 231, dose 15 μM): 10.76 ± 1.38%
- % Sub G0 as from cell cycle analysis ([18]; MDA MB 231, dose 15 μM): 16.08 ± 2.28%
- % S/G2/M as from cell cycle analysis ([18]; MDA MB 231, dose 20 μM): 12.09 ± 1.77%
- % Sub G0 as from cell cycle analysis ([18]; MDA MB 231, dose 20 μM): 27.38 ± 2.28%
- % S/G2/M as from cell cycle analysis ([18]; MDA MB 231, dose 25 μM): 16.94 ± 4.82%
- % Sub G0 as from cell cycle analysis ([18]; MDA MB 231, dose 25 μM): 30.50 ± 4.96%
- Death Percentages ([19]; MDA MB 231, dose 15 μM): 36.50 ± 5.00%
- Death Percentages ([19]; MDA MB 231, dose 20 μM): 47.00 ± 6.78%
- Death Percentages ([19]; MDA MB 231, dose 25 μM): 60% and 60.25 ± 9.03%
- Serum ALT, AST, ALP values and creatinine levels [20]: within the normal range
- effect on the viability of human PBMC ([21]; doses 0.1 to 25 μM): negligible effect
- PBMC that could not survive the treatment ([21]; human PBMC, 35 μM, 12 hours): ~25%
- Total Cell Count (% survival) ([21]; human PBMC, dose 1 μM): 90.67 ± 2.16%
- Total Cell Count (% survival) ([21]; human PBMC, dose 5 μM): 89.50 ± 1.05%
- Total Cell Count (% survival) ([21]; human PBMC, dose 10 μM): 88.67 ± 1.75%
- Total Cell Count (% survival) ([21]; human PBMC, dose 15 μM): 88.83 ± 1.47%
- Total Cell Count (% survival) ([21]; human PBMC, dose 20 μM): 87.33 ± 1.97%
- Total Cell Count (% survival) ([21]; human PBMC, dose 25 μM): 85.17 ± 1.94%
- Total Cell Count (% survival) ([21]; human PBMC, dose 30 μM): 77.67 ± 3.44%
- cytotoxic effect on human PBMC [22]: cytotoxic effect
- bone marrow cell count / bone marrow suppression [6]: did not cause bone marrow suppression
- Death Percentages ([23]; HepG2, dose 15 μM): 20.75 ± 5.25%
- Death Percentages ([23]; HepG2, dose 20 μM): 38.5 ± 6.25%,
- Death Percentages ([23]; HepG2, dose 25 μM): 55.86 ± 7.12%
